“Also recorded” adds a separate entry of the source.
What was measured:
KB-3-1 cells [1] = assay: Doxorubicin accumulation assay (flow cytometry), KB-3-1; assay type: cell-based, human; settings: pre-treatment, then 2 μM doxorubicin 30 min
Method: (§1) Data was collected with CellQuest Software and analysed with ModFitLT V2.0. Mean fluorescence intensities of 1×10^4 drug-treated cells were quantified and compared with the APC untreated cells. […] A negative control test was also performed.

KB-3-1 cells [2] = assay: Apoptosis study by DNA ladder, KB-3-1; assay type: cell-based, human; settings: 24 hours
Method: In this experiment, three groups of KB-3-1 cells were treated for 24 hours at different concentrations (17.26 μM, 34.52 μM & 172.56 μM) of APC. A control group of KB-3-1 cells was treated as negative control for the same amount of time. Approximately 5×10^6 cells from each of the four groups were washed in phosphate buffered saline (PBS) and their genomic DNA was extracted using Apoptotic DNA Ladder Kit-Best. Nr. 1 835 246 (Roche) according to the manufacturer's manual. The extracted DNA was analyzed by electrophoresis in 2% agarose gel containing 0.1% ethidium bromide in tris galacial acetic acid (TAE) buffer for 30 minutes at 99v. DNA bands of the gel were observed and recorded by Multi-Imager (Bio-Rad, California, USA).
(§2) This experiment was a continuation of Experiment 7. Apoptotic studies by DNA ladder was carried out for 24 hours with drug treatment at different concentrations (17.26 μM, 34.52 μM & 172.56 μM) of APC. A total of eight groups of cells were used. 5×10^6 cells were washed in PBS. Their genomic DNA was extracted using Apoptotic DNA Ladder Kit-Best. Nr. 1 835 246 (Roche) according to Manufacturer's manual. DNA was analyzed by electrophoresis in 2% agarose gel containing 0.1% ethidium bromide in TAE buffer (99v, 30 min). DNA bands were observed and recorded by Multi-Imager (Bio-Rad, California, USA).

MDR KB-V1 cells [3] = assay: Doxorubicin accumulation assay (flow cytometry), KB-V1; assay type: cell-based, human
Method: as §1

KB-3-1 cells [4] = assay: Combination Index (CI-isobologram) of APC and doxorubicin, KB-3-1; assay type: cell-based, human
Source text: (§3) In this experiment, the CI-isobologram by Chou and Talalay was used to determine the Combination Index (CI) of APC and doxorubicin. In order to understand the synergistic effect of APC with a conventional cancer drug, a number of combinations of drug concentrations were used in the combination studies. A mutually non-exclusive equation was used to determine the CIs, and the equation is illustrated and explained in the Appendix section below. CI>1, CI=1, and CI<1 indicate antagonism, additive effect, or synergism, respectively. The explanation of the determination of combination indices (CI) is provided in the Appendix section towards the end of the description.
(§4) The Chou and Talalay (Chou T C; Talay P. Adv Enzyme Regul 1984 22:27-55) combination index CI-isobologram equation for two-drug combination is: [formula]
(§5) Firstly, the Din (Median Dose or LD50) and m of each treatment was determined according to the Median-Effect Plot. […] Combination Indices (CI) were calculated at various fractional kill (fa).
(§6) The CI-isobologram by Chou and Talalay was used to determine the Combination Indices (CI) of APC and doxorubicin. […] The mutually non-exclusive equations were used to determine the CIs and each CI was calculated from the mean affected fraction at each drug ratio concentration.

MDR KB-V1 cells [5] = assay: Sulfo-Rhodamine B (SRB) cytotoxicity assay, KB-V1; assay type: cell-based, human; settings: 3-day dose-response
Method: In the following experiments, tests were conducted using the human cancer cell lines KB-3-1 and KB-V1. The MDR cancer cells KB-V1 were selected from drug sensitive KB-3-1 cells treated by vinblastine. The cell lines (American Type Culture Collection, MD, USA) were routinely grown in MEM (Gibco, MD, USA) containing 10% fetal bovine serum (FBS) and 1% antibiotic solution (Gibco, MD, USA), and 300 ng/ml of vinblastine for maintenance of drug resistance for KB-V1 cells. Cultures of the cells were maintained in a humidified 5% CO2 incubator.
The color intensity of SRB, positively correlated to number of cell, was estimated by correlating to OD at 515 nm. The concentration of DMSO and ethanol in the drug solvent of APC was 20 wt % and 80 wt % respectively. The concentration of DMSO in each culture sample was ≦0.1%.

β-Actin = assay: Reverse transcription-PCR of β-Actin (internal standard); assay type: cell-based, human; settings: KB-3-1 and KB-V1 cells, 1× and 2× dose of LD50
Method: (§7) 1 μg of total RNA isolated from cells using High Pure™ RNA Isolation Kits (Roche) was incubated with 100 ng random primers (Gibco BRL) and DEPC-treated water (total volume 10 μl) for 10 min at 65° C., then for 5 min on ice. Reverse transcription mixture contained 4 μl of 5× reaction buffer (50 mM Tris-HCl, 100 mM NaCl, 1 mM EDTA, 10 mM DTE, 0.05% polydocanol v/v, 50% glycerol v/v, pH 8.4), 2 μl 10 mM dNTP, 2 μl 100 mM dithiothreitol and 1 μl 50 units/μl Expand™ Reverse Transcriptase (Roche). The reaction lasted for 1.5 hours at 42° C. PCR amplifications were carried out using Expand™ Long Template PCR System (Roche). The primers used were cDNA sequences of p-glycoprotein (P-gp) SEQ ID NO. 1 (sense strand) and SEQ ID NO. 2 (anti-sense strand); cDNA sequences of β-actin SEQ ID NO. 3 (sense strand) and SEQ ID NO. 4 (anti-sense strand). […] of [α-^32P]dATP was added to 25 μl amplification reaction mix. The PCR was performed in a Gene Cycler™ (Bio-Rad) for 27 cycles, consisting of 1 min at 94° C., 1 min at 57° C. and 1 min at 72° C. The samples were heated for 5 min at 94° C. before the first cycle, and the extension time was lengthened to 10 min during the last cycle. PCR products resulted therefrom were size-fractionated on 10% polyacrylamide gel. Autoradiography was carried out with BioMax film (Kodak). Drug-sensitive KB-3-1 was used as control experiments. […]

MDR1 mRNA = assay: Reverse transcription-PCR of MDR1; assay type: cell-based, human; settings: KB-3-1 and KB-V1 cells, 1× and 2× dose of LD50
Method: as §7

[6] = tested on: human carcinoma KB-3-1 cancer cell line; assay: Sulfo-Rhodamine B (SRB) cytotoxicity assay, KB-3-1; assay type: cell-based; settings: drug-sensitive KB-3-1 cells, 72 hours, median-effect plot
Method: Assays were carried out in triplicate against human carcinoma KB-3-1 cancer cell line. […] The treatment of KB-3-1 cancer cells lasted for 72 hours and the cell number in each sample was estimated by correlating to optical density (OD) at 515 nm. […] The median dose value was determined from plots of median effects and was equivalent to LD50 (Skehan P.; Storeng R.; Scudiero D.; Monks A.; McMahon J.; Vistica D; Warren J T.; Bokesch H.; Kenney S.; Boyd M R.; J Natl Cancer Inst 1990 82:1107-1112).

KB-V1 cells = assay: Apoptosis study by DNA ladder, KB-V1; assay type: cell-based, human; settings: 24 hours
Method: as §2

MDR KB-V1 cells [7] = assay: Combination Index (CI-isobologram) of APC and doxorubicin, KB-V1; assay type: cell-based, human; settings: APC 2.0219 μM to 129.3996 μM with doxorubicin, particularly fractional kill greater than 50%
Source text: as §3, §4, §5, §6

actin = assay: Western blotting of actin; assay type: cell-based, human; settings: KB-3-1 and KB-V1 cells, 1× and 2× dose of LD50
Method: (§8) For protein analysis of P-gp and actin, cells were lysed in ice-cold lysis buffer (1% sodium deoxycholate, 0.1% SDS, 1% Triton X-100, 2 mM phenylmethylsulphonyl fluoride, 1% aprotinin). Total lysates were subjected to SDS/PAGE and electrotransferred to nitrocellulose membranes (Bio-Rad). Membranes were then incubated with anti-P-gp or anti-β-actin antibody (Calbiochem) in blocking buffer (10 mM Tris pH7.5, 100 mM NaCl, 0.1% Tween 20, 5% non-fat dry milk) for 1 hour at room temperature before incubation with horseradish-peroxidase-conjugated anti-(rabbit IgG) or anti-(mouse IgG) antibody (Gibco BRL) for 1 hour at room temperature. Immunobinding was detected by the ECL method (Amersham). β-actin polyclonal antibody (Oncogene Science, Uniondale, N.Y., USA) was used as internal standard. Drug-sensitive KB-3-1 was used as control experiments.

P-glycoprotein (P-gp) = assay: Western blotting of P-gp; assay type: cell-based, human; settings: KB-3-1 and KB-V1 cells, 1× and 2× dose of LD50
Method: as §8

SMILES: C/C=C(/C)C(=O)OC1C(OC(C)=O)c2c(ccc3ccc(=O)oc23)OC1(C)C (stereo not drawn) [APC, cis-3′-angeloyl-4′-acetoxy-khellactone]
- accumulation of doxorubicin in cells (KB-3-1 cells [1]): more doxorubicin accumulated
- DNA ladder, state of DNA (KB-3-1 cells [2]; 17.26 μM): little affected
- apoptosis (DNA fragmentation, DNA ladder) (KB-3-1 cells [2]; 172.6 μM): significantly more apoptosis
- accumulation of doxorubicin in cells (MDR KB-V1 cells [3]; KB-V1 cells, pre-treatment, then 2 μM doxorubicin 30 min): substantially higher accumulation of doxorubicin
- increase of doxorubicin accumulation (MDR KB-V1 cells [3]; MDR KB-V1 cells, 6 hours incubation at LD50, then 2 μM doxorubicin 30 min): approximately 25%
- synergism with doxorubicin (KB-3-1 cells [4]; APC 2.0219 μM to 129.3996 μM with doxorubicin): relatively low synergism; also recorded: little or no synergistic interactions
- Combination Index (CI) (KB-3-1 cells [4]; drug combination C (doxorubicin 0.0431 μM, APC 129.3996 μM), all fractional kill): greater than 1
- LD50 (MDR KB-V1 cells [5]): 17.2656 ± 8.2441 µM
- β-Actin mRNA level (β-Actin): not affected
- MDR1 mRNA level (MDR1 mRNA): reduced significantly
- LD50 [6]: 41.9153 ± 2.8016 µM
- DNA ladder, state of DNA (KB-V1 cells; 17.26 μM): slightly cut
- DNA ladder, state of DNA (KB-V1 cells; 172.6 μM): cut in larger extent
- synergism with doxorubicin (MDR KB-V1 cells [7]): relatively high synergistic interactions
- level of actin (actin): not affected
- level of P-gp proteins (P-glycoprotein (P-gp)): lower

SMILES: COc1cccc2c1C(=O)c1c(O)c3c(c(O)c1C2=O)C[C@@](O)(C(=O)CO)C[C@@H]3O[C@H]1C[C@H](N)[C@H](O)[C@H](C)O1 [doxorubicin, reference compound]
- LD50 (MDR KB-V1 cells [5]): 3.0510 ± 0.2846 µM

Reference: patent US20040162337A1, “Chemical compounds having therapeutic activities in treating cancer” (priority 2003, published 2004)
